Data from ChEMBL document CHEMBL2040717, “Cytotoxic diterpenoids from Sapium insigne” (J Nat Prod, 2012).
pIC50: −log10 of the molar value. Calls of active or inactive are those of the source. No cut-off for these calls is given here.

Key:
[1] = tested on: A549; assay: Cytotoxicity against human A549 cells at 100 uM by SRB assay; format: functional, cell-based
[2] = tested on: HL-60; assay: Cytotoxicity against human HL60 cells at 100 uM by MTT assay
[3] = tested on: HL-60; assay: Cytotoxicity against human HL60 cells by MTT assay
[4] = tested on: A549; assay: Cytotoxicity against human A549 cells by SRB assay; format: functional, cell-based

## CC[C@H](C)CC[C@@H]1[C@H](C)CC[C@@H]2C(C)(C)CCC[C@@]12C
[1]
  Activity: inactive
[2]
  Activity: inactive

## C[C@H]1C[C@@]23CC[C@@H]4C(C)(C)CCC[C@@]4(C)[C@@H]2CC[C@@H]1C3
[1]
  Activity: inactive
[2]
  Activity: inactive

## C[C@H]1C[C@]23CC[C@H]1C[C@H]2[C@]1(C)CCCC(C)(C)[C@H]1CC3
[1]
  Activity: inactive
[2]
  Activity: inactive

## CCCCCCCC[C@@H](O)/C=C/C=C/C(=O)O[C@@]12C[C@@H](C)[C@@]3(O)[C@@H](C=C(CO)C[C@]4(O)C(=O)C(C)=C[C@@H]34)[C@@H]1[C@@]2(C)COC(C)=O [SAPINSIGNOID A]
[3]
  pIC50: 5.47
[4]
  pIC50: 5.74

## CCCCCCCC[C@H](O)/C=C/C=C/C(=O)O[C@@]12C[C@@H](C)[C@@]3(O)[C@@H](C=C(CO)C[C@]4(O)C(=O)C(C)=C[C@@H]34)[C@@H]1[C@@]2(C)COC(C)=O [SAPINSIGNOID B]
[3]
  pIC50: 5.19
[4]
  pIC50: 6.70

## CCCCCCCCC(=O)/C=C/C=C/C(=O)O[C@@]12C[C@@H](C)[C@@]3(O)[C@@H](C=C(CO)C[C@]4(O)C(=O)C(C)=C[C@@H]34)[C@@H]1[C@@]2(C)COC(C)=O [SAPINSIGNOID C]
[3]
  pIC50: 5.57
[4]
  pIC50: 6.40

## CCCCCCCC/C=C/C=C/CC(=O)O[C@@]12C[C@@H](C)[C@@]3(O)[C@@H](C=C(CO)C[C@]4(O)C(=O)C(C)=C[C@@H]34)[C@@H]1[C@@]2(C)COC(C)=O [SAPINSIGNOID D]
[4]
  pIC50: 6.05
